# Paper PMC4066849 (Structure (London, England : 1993), 2014)
# Tests used:
# [1] = target: MiD51 (Mus musculus, UniProt Q8BGV8); assay: fluorescence anisotropy equilibrium titration; format: binding
# [2] = target: Drp1 (Mus musculus, UniProt Q8K1M6); assay: GTP hydrolysis by purified Drp1; format: biochemical
# Sequence of Drp1 (Q8K1M6 whole entry): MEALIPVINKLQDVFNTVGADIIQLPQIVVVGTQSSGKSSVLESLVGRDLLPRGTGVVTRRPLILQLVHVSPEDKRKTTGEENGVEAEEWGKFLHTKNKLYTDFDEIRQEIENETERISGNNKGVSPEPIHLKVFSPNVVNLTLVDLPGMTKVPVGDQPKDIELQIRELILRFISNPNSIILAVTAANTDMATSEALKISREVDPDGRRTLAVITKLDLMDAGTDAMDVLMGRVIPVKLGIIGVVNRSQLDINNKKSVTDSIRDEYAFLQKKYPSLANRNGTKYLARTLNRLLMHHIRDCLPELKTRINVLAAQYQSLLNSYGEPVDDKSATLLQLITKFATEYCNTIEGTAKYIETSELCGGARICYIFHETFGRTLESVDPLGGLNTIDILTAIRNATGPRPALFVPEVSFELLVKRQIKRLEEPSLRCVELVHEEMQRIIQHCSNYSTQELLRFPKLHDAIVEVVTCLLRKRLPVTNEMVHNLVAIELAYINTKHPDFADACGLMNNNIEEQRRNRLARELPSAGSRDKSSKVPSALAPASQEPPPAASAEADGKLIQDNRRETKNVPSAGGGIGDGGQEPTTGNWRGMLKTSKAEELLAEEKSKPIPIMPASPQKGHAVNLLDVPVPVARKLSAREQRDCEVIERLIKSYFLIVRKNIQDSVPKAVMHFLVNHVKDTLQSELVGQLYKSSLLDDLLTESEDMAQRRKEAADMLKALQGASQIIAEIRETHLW
# Sequence of MiD51 (Q8BGV8 134-463): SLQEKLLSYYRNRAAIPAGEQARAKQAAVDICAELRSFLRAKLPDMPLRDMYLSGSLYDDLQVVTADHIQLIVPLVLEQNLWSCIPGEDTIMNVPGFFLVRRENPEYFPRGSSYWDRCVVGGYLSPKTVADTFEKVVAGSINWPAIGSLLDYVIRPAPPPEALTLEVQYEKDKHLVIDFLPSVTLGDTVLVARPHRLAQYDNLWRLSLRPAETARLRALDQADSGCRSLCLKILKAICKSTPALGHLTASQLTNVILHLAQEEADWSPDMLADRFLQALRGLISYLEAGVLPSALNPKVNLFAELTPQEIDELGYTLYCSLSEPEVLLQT
SMILES,Kd [1] [µM],"GTP hydrolysis by purified Drp1 ([γ-32P]-GTP, thin-layer chromatography); abolis [2]"
CNc1ccccc1C(=O)O[C@H]1[C@@H](O)[C@H](n2cnc3c(=O)[nH]c(N)nc32)O[C@@H]1COP(=O)(O)OP(=O)(O)O [MANT-GDP],8,–
Nc1nc2c(ncn2[C@@H]2O[C@H](COP(=O)(O)OP(=O)(O)OP(=O)(O)O)[C@@H](O)[C@H]2O)c(=O)[nH]1 [GTP],–,~ 1.5 molecules of GTP per minute
